Data from patent US7223791B2, “Function regulator for retinoid relative receptor” (Takeda Pharmaceutical Company Limited, priority 2001, dated 2007).

| melting point | Compound |
| --- | --- |
| 150 to 151 °C | CCOC(=O)c1ccc(-c2ccc(-c3ccc(C(F)(F)F)cc3)n2C)cc1 [Example 3, ethyl 4-[1-methyl-5-(4-trifluoromethylphenyl)-2-pyrrolyl]benzoate] |
| 93 to 94 °C | CCOC(=O)c1cccc(-c2ccc(-c3ccc(C(F)(F)F)cc3)o2)c1 [Example 5, ethyl 3-[5-(4-trifluoromethylphenyl)-2-furyl]benzoate] |
| 272 to 273 °C | O=C(O)c1cc(-c2ccc(-c3ccc(C(F)(F)F)cc3)o2)ccc1O [Example 12, 5-[5-(4-trifluoromethylphenyl)-2-furyl]salicylic acid] |
| 203 to 204 °C | CCOC(=O)c1ccc(-c2ccc(-c3ccc(C(F)(F)F)cc3)s2)cc1 [Example 14, ethyl 4-[5-(4-trifluoromethylphenyl)-2-thienyl]benzoate] |
| 205 to 206 °C | COC(=O)c1ccc(-c2cc(-c3ccccc3)no2)cc1 [Example 17, methyl 4-(3-phenyl-5-isoxazolyl)benzoate] |
| 225 to 226 °C | COC(=O)c1ccc(-c2cc(-c3ccc(Cl)cc3)no2)cc1 [Example 18, methyl 4-[3-(4-chlorophenyl)-5-isoxazolyl]benzoate] |
| 99 to 100 °C | COC(=O)c1cccc(-c2cc(-c3ccccc3)on2)c1 [Example 20, methyl 3-(5-phenyl-3-isoxazolyl)benzoate] |
| 201 to 202 °C | COC(=O)c1ccc(-c2cc(-c3ccccc3)on2)cc1 [Example 21, methyl 4-(5-phenyl-3-isoxazolyl)benzoate] |
| 157 to 158 °C | COC(=O)c1cccc(-c2cc(-c3ccc(Cl)cc3)on2)c1 [Example 22, methyl 3-[5-(4-chlorophenyl)-3-isoxazolyl)benzoate] |
| 225 to 226 °C | COC(=O)c1ccc(-c2cc(-c3ccc(Cl)cc3)on2)cc1 [Example 23, methyl 4-[5-(4-chlorophenyl)-3-isoxazolyl]benzoate] |
| > 300 °C | O=C(O)c1ccc(-c2cc(-c3ccccc3)no2)cc1 [Example 24, 4-(3-phenyl-5-isoxazolyl)benzoic acid] |
| > 300 °C | O=C(O)c1ccc(-c2cc(-c3ccc(Cl)cc3)no2)cc1 [Example 25, 4-[3-(4-chlorophenyl)-5-isoxazolyl]benzoic acid] |
| 139 to 140 °C | COC(=O)c1cccc(-c2cc(-c3ccc(C(F)(F)F)cc3)on2)c1 [Example 31, methyl 3-[5-(4-trifluoromethylphenyl)-3-isoxazolyl]benzoate] |
| 183 to 184 °C | COC(=O)c1ccc(-c2cc(-c3ccc(C(F)(F)F)cc3)on2)cc1 [Example 32, methyl 4-[5-(4-trifluoromethylphenyl)-3-isoxazolyl]benzoate] |
| 177 to 178 °C | COC(=O)c1ccc(-c2nc(-c3ccc(C(F)(F)F)cc3)no2)cc1 [Example 40, methyl 4-[3-(4-trifluoromethylphenyl)-1,2,4-oxadiazol-5-yl]benzoate] |
| 293 to 294 °C | O=C(O)c1ccc(-c2nc(-c3ccc(C(F)(F)F)cc3)no2)cc1 [Example 42, 4-[3-(4-trifluoromethylphenyl)-1,2,4-oxadiazol-5-yl]benzoic acid] |
| 210 to 211 °C | COC(=O)c1ccc(-c2nnc(-c3ccc(C(C)(C)C)cc3)o2)cc1 [Example 47, methyl 4-[5-(4-t-butylphenyl)-1,3,4-oxadiazol-2-yl]benzoate] |
| > 300 °C | O=C(O)c1ccc(-c2nnc(-c3ccc(C(F)(F)F)cc3)o2)cc1 [Example 49, 4-[5-(4-trifluoromethylphenyl)-1,3,4-oxadiazol-2-yl]benzoic acid] |
| > 300 °C | O=C(O)c1ccc(-c2nnc(-c3ccc(C(F)(F)F)cc3)s2)cc1 [Example 59, 4 [5-(4-trifluoromethylphenyl)-1,3,4-thiadiazol-2-yl]benzoic acid] |
| 173 to 174 °C | COC(=O)c1ccc(-c2nnc(-c3ccc(C(F)(F)F)cc3)o2)c([N+](=O)[O-])c1 [Example 67, methyl 3-nitro-4-[5-(4-trifluoromethylphenyl)-1,3,4-oxadiazol-2-yl]benzoate] |

The next lines start with the compound.

| Compound | melting point |
| --- | --- |
| CCOC(=O)c1ccc(-c2nc(-c3ccccc3)ccc2Cl)cc1 [Example 1, ethyl 4-(3-chloro-6-phenyl-2-pyridyl)benzoate] | 81 to 82 °C |
| O=C(O)c1ccc(-c2nc(-c3ccccc3)ccc2Cl)cc1 [Example 2, 4-(3-chloro-6-phenyl-2-pyridyl)benzoic acid] | 254 to 255 °C |
| O=C(O)c1ccccc1-c1ccc(-c2ccc(C(F)(F)F)cc2)o1 [Example 8, 2-[5-(4-trifluoromethylphenyl)-2-furyl]benzoic acid] | 182 to 183 °C |
| O=C(OCc1ccccc1)c1cc(-c2ccc(-c3ccc(C(F)(F)F)cc3)o2)ccc1OCc1ccccc1 [Example 11, benzyl 2-benzyloxy-5-[5-(4-trifluoromethylphenyl)-2-furyl]benzoate] | 97 to 98 °C |
| CCOC(=O)c1ccc(-c2ccc(-c3ccc(Cl)cc3)s2)cc1 [Example 13, ethyl 4-[5-(4-chlorophenyl)-2-thienyl]benzoate] | 167 to 168 °C |
| COC(=O)c1ccc(-c2n[nH]c(-c3ccccc3)n2)cc1 [Example 36, methyl 4-(5-phenyl-1H-1,2,4-triazol-3-yl)benzoate] | 243 to 244 °C |
| COC(=O)c1ccc(-c2nc(-c3ccccc3)n(C)n2)cc1 [Example 37, methyl 4-(1-methyl-5-phenyl-1H-1,2,4-triazol-3-yl)benzoate] | 167 to 168 °C |
| O=C(O)c1ccc(-c2n[nH]c(-c3ccccc3)n2)cc1 [Example 38, 4-(5-phenyl-1H-1,2,4-triazol-3-yl)benzoic acid] | > 300 °C |
| Cn1nc(-c2ccc(C(=O)O)cc2)nc1-c1ccccc1 [Example 39, 4-(1-methyl-5-phenyl-1H-1,2,4-triazol-3-yl)benzoic acid] | 243 to 244 °C |
| COC(=O)c1ccc(-c2nc(-c3ccc(Oc4ccccc4)cc3)no2)cc1 [Example 41, methyl 4-[3-(4-phenoxyphenyl)-1,2,4-oxadiazol-5-yl]benzoate] | 112 to 113 °C |
| O=C(O)c1ccc(-c2nc(-c3ccc(Oc4ccccc4)cc3)no2)cc1 [Example 43, 4-[3-(4-phenoxyphenyl)-1,2,4-oxadiazol-5-yl]benzoic acid] | 278 to 279 °C |
| COC(=O)c1ccc(-c2nnc(-c3ccccc3)o2)cc1 [Example 45, methyl 4-(5-phenyl-1,3,4-oxadiazol-2-yl)benzoate] | 172 to 173 °C |
| O=C(O)c1ccc(-c2nnc(-c3ccccc3)o2)cc1 [Example 48, 4-[5-phenyl-1,3,4-oxadiazol-2-yl]benzoic acid] | > 300 °C |
| CC(C)(C)c1ccc(-c2nnc(-c3ccc(C(=O)O)cc3)o2)cc1 [Example 50, 4-[5-(4-t-butylphenyl)-1,3,4-oxadiazol-2-yl]benzoic acid] | 284 to 286 °C |
| O=C(O)c1cccc(-c2nnc(-c3ccc(C(F)(F)F)cc3)o2)c1 [Example 51, 3-[5-(4-trifluoromethylphenyl)-1,3,4-oxadiazol-2-yl]benzoic acid] | 239 to 240 °C |
| O=C(O)c1ccc(-c2nnc(-c3ccccc3[N+](=O)[O-])o2)cc1 [Example 52, 4-[5-(2-nitrophenyl)-1,3,4-oxadiazol-2-yl]benzoic acid] | 239 to 240 °C |
| CCOC(=O)c1ccc(-c2nnc(-c3ccccc3[N+](=O)[O-])o2)cc1 [Example 53, ethyl 4-[5-(2-nitrophenyl)-1,3,4-oxadiazol-2-yl]benzoate] | 127 to 128 °C |
| CCOC(=O)c1ccc(-c2nnc(-c3ccccc3N)o2)cc1 [Example 54, ethyl 4-[5-(2-aminophenyl)-1,3,4-oxadiazol-2-yl]benzoate] | 174 to 175 °C |
| Nc1ccccc1-c1nnc(-c2ccc(C(=O)O)cc2)o1 [Example 55, 4-[5-(2-aminophenyl)-1,3,4-oxadiazol-2-yl]benzoic acid] | > 300 °C |
| COC(=O)c1ccc(-c2nc(-c3ccc(Cl)cc3)no2)c([N+](=O)[O-])c1 [Example 60, methyl 4-[3-(4-chlorophenyl)-1,2,4-oxadiazol-5-yl]-3-nitrobenzoate] | 189 to 190 °C |
| O=C(O)c1ccc(-c2nc(-c3ccc(Cl)cc3)no2)c([N+](=O)[O-])c1 [Example 62, 4-[3-(4-chlorophenyl)-1,2,4-oxadiazol-5-yl]-3-nitrobenzoic acid] | 257 to 258 °C |
| O=C(O)c1ccc(-c2nc(-c3ccc(C(F)(F)F)cc3)no2)c([N+](=O)[O-])c1 [Example 63, 3-nitro-4-[3-(4-trifluoromethylphenyl)-1,2,4-oxadiazol-5-yl]benzoic acid] | 233 to 234 °C |
| Nc1cc(C(=O)O)ccc1-c1nc(-c2ccc(Cl)cc2)no1 [Example 64, 3-amino-4-[3-(4-chlorophenyl)-1,2,4-oxadiazol-5-yl]benzoic acid] | 294 to 296 °C (dec.) |
| COC(=O)c1ccc(-c2nc(-c3ccc(C(F)(F)F)cc3)no2)c(NC(=O)C(F)(F)F)c1 [Example 65, methyl 3-trifluoroacetylamino-4-[3-(4-trifluoromethylphenyl)-1,2,4-oxadiazol-5-yl]benzoate] | 188 to 189 °C |
| Nc1cc(C(=O)O)ccc1-c1nc(-c2ccc(C(F)(F)F)cc2)no1 [Example 66, 3-amino-4-[3-(4-trifluoromethylphenyl)-1,2,4-oxadiazol-5-yl]benzoic acid] | > 300 °C |
| COC(=O)c1ccc(-c2nnc(-c3ccc(C(C)(C)C)cc3)o2)c([N+](=O)[O-])c1 [Example 68, methyl 4-[5-(4-t-butylphenyl)-1,3,4-oxadiazol-2-yl]-3-nitrobenzoate] | 142 to 143 °C |
| O=C(O)c1ccc(-c2nnc(-c3ccc(C(F)(F)F)cc3)o2)c([N+](=O)[O-])c1 [Example 69, 3-nitro-4-[5-(4-trifluoromethylphenyl)-1,3,4-oxadiazol-2-yl]benzoic acid] | 254 to 255 °C |
| CC(C)(C)c1ccc(-c2nnc(-c3ccc(C(=O)O)cc3[N+](=O)[O-])o2)cc1 [Example 70, 4-[5-(4-t-butylphenyl)-1,3,4-oxadiazol-2-yl]-3-nitrobenzoic acid] | 233 to 235 °C |
